Reference: patent US20140065122A1, “Method for Removing a Microorganism Biofilm” (priority 2010, published 2014)

Legend:
[1] = system: Staphylococcus aureus RN4220 GFP biofilm; test: Examples 4 and 5: log reduction of Staphylococcus aureus biofilm after bacterial pretreatment followed by benzalkonium chloride; type: cell-based; conditions: Example 5; treatment with C14 benzalkonium chloride after pretreatment with the named strain(s)
Experimental: The target biofilms of Staphylococcus aureus RN4220 GFP cultivated in microplates and bacilli cultures used are obtained according to the method previously described for Bacillus thuringiensis 407.
(§1) On a microplate containing 24-hour biofilms of Staphylococcus aureus RN4220 GFP having a thickness greater than 30 μm, one carefully removes 250 μL of supernatant from each well. 250 μL of culture medium (control) or suspension of: • Bt • BtΔfla • Bl • or Bt+Bl at equal concentrations, calibrated at 10^8 cells/mL are then added to each well.
The Staphylococcus aureus biofilms in the presence or not of bacteria are then incubated at 37° C. for 4 hours to allow infiltration of swimming bacteria. The supernatants are eliminated prior to placement into contact with the biocide.
These target biofilms are then treated by adding to the wells 200 μL of C14 benzalkonium chloride (BAC, Fluka, Buchs, Switzerland) at a concentration of 750 ppm, or 200 μl of […] sodium chloride (NaCl) (“non-treated” biofilm. […]
The surviving S. aureus are counted on TSA agar after serialized dilutions in 150-mM NaCI and incubation for 24 hours at 37° C.
The log 10 reductions of the S. aureus bacteria are calculated by comparing the relationship of the surviving ones in the disinfected biofilms to the population of non-treated biofilms. […]

[2] = system: Staphylococcus aureus RN4220 GFP biofilm; test: Example 2: Staphylococcus aureus biofilm treated with lysostaphin with or without pretreatment by swimming Bacillus thuringiensis 407, residual biovolume; type: cell-based
Experimental: The strains of bacteria used for these experiments correspond to strains of Staphylococcus aureus RN4220 GFP and Bacillus thuringiensis 407 described in Table I.
The target biofilms of Staphylococcus aureus RN4220 GFP cultivated in microplates and the Bacillus thuringiensis 407 cultures used are obtained according to the method described previously.
as §1, with “of more” for “greater”, “of Bacillus thuringiensis 407” for “of: • Bt • BtΔfla • Bl • or Bt+Bl at equal concentrations,”, “into” for “to”
The Staphylococcus aureus biofilms in the presence or not of swimming bacteria are then incubated at 37° C. for 4 hours.
These target biofilms, sensitized or not for 4 hours by a cocktail of swimming bacteria, are then treated by adding into the wells 250 μL of lysostaphin in a concentration range of 0 to 0.5 μg/ml.
The same experimental device as the one described in the first experiment was used to quantify the effectiveness of treatment (comparison between the residual biovolume of the target biofilm during activity of the lysostaphin with or without pretreatment and a cocktail of swimming bacteria).

Row | Substance | Log reduction (+/−0.2) [1] [log] | eradication of the target biofilm by the antimicrobial compound alone ([2]; lysostaphin concentration <0.5 μg/ml, without pretreatment) | effectiveness on the target biofilm after pretreatment with a cocktail of swimming bacteria ([2]; pretreatment Bacillus thuringiensis 407 10^8 cells/mL 4 hours, lysostaphin 0 to 0.5 μg/ml, P<0.05)
1 | C14 benzalkonium chloride | −0.9 | – | –
2 | lysostaphin | – | does not allow eradication | improved
